The values that follow come from patent EP0927045B1, “TUMOR HOMING MOLECULES, […] THEREFROM, AND METHODS OF USING SAME” (The Burnham Institute, priority 1996, dated 1998).

Read-outs that look alike come from different tables or passages of the source. Where no end group is shown, it is not given here. A value given as a limit tells only on which side of the number the result lay.

The nature of data set [1]: Acute toxicity in mice bearing extremely large tumors. Format: in vivo. Particulars: 200 µg/mouse; tumors about 25% of body weight. As to the method: Acute toxicity studies also were performed.
Data set [2] has as its system MDA-MB-435 breast carcinoma. As to the kind of experiment: Tumor therapy with doxorubicin/peptide conjugates in tumor bearing mice. The class given is in vivo, Balb c nu/nu mice. Particulars: for effect on tumor growth: relative to treatment with the vehicle, alone. The method, then:
Female 2-month old Balb c nu/nu mice (Harlan Sprague Dawley; San Diego CA) were used for these studies and were cared for according to the Burnham Institute animal facility guidelines. […] Tumors were allowed to grow to a size of about 1 cm^3 (about 5% of the mouse's body weight) before starting the treatment experiments, except for the toxicity experiments as discussed below.
Weekly doxorubicin/peptide conjugate or control treatments (5 µg/mouse/week of doxorubicin-equivalent) were administered intravenously. In some experiments, as indicated, a dose of 30 µg/mouse was administered every 3 weeks. Treatment with doxorubicin, alone, is referred to as "dox control" and treatment with doxorubicin conjugated to the non-tumor homing control peptide, […] As an additional control, in some experiments the tumor homing peptide was mixed with doxorubicin, without linking, and the mixture was administered to tumor bearing mice. Such treatment produced results that were not statistically different from those obtained with the above described dox controls.
Mice were anesthetized with a tribromoethanol-based anesthetic mixture (AVERTIN; Papaioannou and Fox, Lab. Anim. 43:189-192 (1993)) before each treatment. Anesthetization facilitated the tail vein injections (final volume, 200 µl) and allowed precise serial three dimensional tumor size measurements. Tumor volume calculations were based on the equation for the volume of an ovaloid: V=4/3(nabc), where a, b, and c are 1/2 of the measured diameters in each of the three dimensions.

Data set [3] has as its system MDA-MB-435 human breast carcinoma cells. As to the kind of experiment: In vitro characterization of cytotoxicity, crystal violet staining. Format: cell-based.
Experimental: (§1) (SEQ ID NO: 1) conjugate, or the doxorubicin/[sequence] (SEQ ID NO: 19; control) conjugate (0.1 to 10 µg/well of doxorubicin-equivalent) for either 30 min or overnight. Following incubation, the agents were removed by extensive washing with PBS, then fresh medium added and incubation was continued. The number of surviving cells was determined at 24 hours with crystal violet staining (see Koivunen et al., supra, 1994).
For data set [4], the system named is Human 435 breast carcinoma. As to the kind of experiment: In vivo targeting of phage to a tumor, phage in organs quantitated. The arrangement: species or system nude mice. As to the method:
When the tumors attained a diameter of about 1 cm, phage expressing a specific RGD-containing peptide were administered to the tumor bearing mouse. Similar results TABLE 1
1 x 10^9 phage expressing the RGD-containing peptide, […] (SEQ ID NO: 1; see, Koivunen et al., supra, 1995) or control (insertless) phage were injected intravenously (iv) into the mice and allowed to circulate for 4 min. The mice then were snap frozen or perfused through the heart while under anesthesia, and various organs, including tumor, brain and kidney, were removed and the phage present in the organs was quantitated (see U.S. Patent No. 5,622,699; Pasqualini and Ruoslahti, supra, 1996).

The subject of the next data set is human Kaposi's sarcoma. The experiment in a line: In vivo targeting of phage to a tumor. The arrangement: species or system mice. Particulars: human Kaposi's sarcoma xenograft. As to the method: Since the αvβ3 integrin is expressed by endothelial cells in angiogenic vasculature, experiments were performed to determine whether tumor vasculature that is undergoing angiogenesis can be targeted in vivo using methods as disclosed herein. Phage expressing the peptide, […] (SEQ ID NO: 1; see, Koivunen et al., supra, 1995), which is known to bind to the αvβ3 integrin, were injected into mice bearing tumors formed from human breast carcinoma cells, mouse melanoma cells or human Kaposi's sarcoma cells (see Example IV). The […] […] For example, in mice bearing tumors formed by implantation of human breast carcinoma cells, a twenty-to eighty-fold greater number of the […] (SEQ ID NO: 1) phage, as compared to unselected control phage, accumulated in the tumor.
(A xenograft is tissue or cells of one species grown in another, often human tumour cells in immunodeficient mice.)

Data set [5] in a line: Acute toxicity in mice bearing extremely large tumors. Format: in vivo. Particulars: 200 µg/mouse; tumors about 25% of body weight. The method, then:
Acute toxicity studies also were performed. […] (SEQ ID NO: 1) conjugate. All of the mice treated with the doxorubicin/[…]
This is another data set of the same source.

Another data set deals with breast tumor. The experiment in a line: Viability of tumor cells plated from tumors of treated mice. Format: in vivo. The following applies: 30 pg equivalent iv, tumors removed five days after treatment, cell numbers 24 hours and 7 days after plating. From the text:
In addition, the viability of tumor cells obtained from tumors of mice treated with a tumor homing peptide/doxorubicin conjugate was compared to that of tumors from mice treated with free doxorubicin. In these experiments, breast tumor bearing mice were size matched with regard to the tumors, then treated intravenously with 30 pg equivalent of doxorubicin/[…] (SEQ ID NO: 1) or of free doxorubicin. Five days after treatment, the mice were euthanized and the tumors were removed. The tumor pairs were weighed and ground and the cell suspensions were plated (2 g tumor tissue per 150 mm plate).
Cell numbers were determined at 24 hours and 7 days after plating. Viability of tumor cells from the tumors of mice receiving the doxorubicin/[…] (SEQ ID NO: 1) conjugate was about 3 fold less than cells from tumors of mice treated with the free doxorubicin.

Data set [6] has as its system MDA-MB-435 human breast carcinoma cells. The class given is cell-based. The following applies: for cell killing: agents not removed after 30 min, after 24 hr.
Experimental: as §1
Where [7] appears, read: exposure 30 min, then agents removed, 0.1 to 10 µg/well doxorubicin-equivalent, surviving cells at 24 hours.
Setting [8] is: 5 µg/mouse/week doxorubicin-equivalent.
Setting [9] is: 5 µg/mouse/week doxorubicin-equivalent iv.
The mark [10] stands for this setting: 5 µg/mouse/week doxorubicin-equivalent iv, at necropsy, t test p<0.0001.

Consider `COc1cccc2c1C(=O)c1c(O)c3c(c(O)c1C2=O)C[C@@](O)(C(=O)CO)C[C@@H]3O[C@H]1C[C@H](N)[C@H](O)[C@H](C)O1` [doxorubicin], for which the “time to death after treatment” value in data set [1] is no more than 48 h. In addition, the “gross examination: skin ulceration and tumor necrosis” value (from here on “gross examination”) in data set [2] (5 µg/mouse/week doxorubicin equivalent) is recorded as “no such signs were observed”. Further, the “effect on tumor growth” value in data set [2] was “essentially no effect on tumor growth”. Also, the cell killing result in data set [3] (agents not removed after 30 min, after 24 hr) is “killed”. Further, the cell death result in data set [3] (setting [7]) is on record as “cell death was present only in the cultures treated with the doxorubicin/CDCRGDCFC”.

Take CLSGSLSC: the “selective homing of phage to the tumor” value (in data set [4]; in the data set with human Kaposi's sarcoma) was “also homed” in each case.

For “doxorubicin/CDCRGDCFC: CDCRGDCFC (SEQ ID NO: 1) coupled to doxorubicin using EDC and NHS (cysteine pairing not given here; also: doxorubicin coupled via EDC/NHS)”, the survival after treatment entry in data set [5] is listed as “survived for longer than one week”. Further, the “gross examination” value in data set [2] (setting [8]) was “marked skin ulceration and tumor necrosis”. Besides, in data set [2] (setting [9]), the “survival compared with dox control and conjugate control” value was “survived beyond the time when the dox control and conjugate control mice had died”; the “tumor size compared with controls” value is listed as “significantly smaller tumors”. Also, in data set [2] (setting [10]), the “pulmonary metastasis compared with dox control” value was “a lower incidence of pulmonary metastasis and fewer metastatic lesions”; the “spread to regional lymph nodes compared with dox control” value is “less spread to regional lymph nodes”. Also, in data set [2] (dose escalation: 30 µg/mouse every three weeks for three cycles), the “time alive after the dox control and conjugate control mice had died” value is “more than 6 months”. Also, the “histopathological analysis of tumor vasculature compared with dox control” value in data set [2] (mouse, in vivo) is on record as “pronounced destruction of the vasculature”. Moreover, in the data set on breast tumor, the “viability of tumor cells relative to cells from tumors of mice treated with free doxorubicin” value is reported as “about 3 fold less”. In data set [6], the cell killing result is recorded as “killed”. For the same molecule, the cell death result in data set [6] (setting [7]) is “cell death was present”.

For the molecule “doxorubicin/GACVFSIAHECGA: doxorubicin conjugated to the non-tumor homing control peptide, GACVFSIAHECGA (SEQ ID NO: 19) (cysteine pairing not given here; also: doxorubicin conjugated) [reference compound]”, the “gross examination” value in data set [2] (setting [8]) is on record as “no such signs were observed”. Moreover, in data set [2] (setting [9]), the “treatment results compared with dox control” value is listed as “not significantly different”. Moreover, the “effect on tumor growth” value in data set [2] is “essentially no effect on tumor growth”. For the same molecule, in data set [6], the cell death result was “cell death was present only in the cultures treated with the doxorubicin/[…]” and the cell killing result is reported as “killed”.
